pIC50: −log10 of the molar value.

For test [1], the system named is ULK kinase substrate ATG13 (pS318-ATG13) in T24 cells. The test is described as follows: pATG13 levels of mutant HRas T24 cells after treatment with ULK inhibitors in combination with trametinib (ELISA). To be noted: in combination with trametinib 250 nM. The class given is cell-based, human. How it is done: pATG13 Levels of Mutant HRas T24 Cells after Treatment with ULK Inhibitors in Combination with Trametinib
T24 human urinary bladder cancer cells (25000 cells/well) were added to a 96-well tissue-culture treated plate in 100 μL of pre-warmed DMEM medium supplemented with 10% characterized fetal bovine serum (Invitrogen, Carlsbad, CA), 100 units/mL penicillin G, and 100 μg/mL streptomycin and allowed to grow overnight at 37° C., 5% CO2, and 95% humidity. The following day, 100 μL of media containing trametinib or DMSO as a control was added to wells. The final concentration of trametinib in wells was 250 nM. A dose response of a test compound (0.5 μL per well) was added. DMSO (0.5 μL) was added to control wells. The plate was briefly shaken to mix wells and then incubated at 37° C. overnight. The next day, the media was aspirated and cells were washed with Dulbecco's Phosphate Buffered Saline (Gibco). Cells were lysed using MPER lysis buffer (Pierce, Rockford, IL) containing Halt Phosphatase and Protease Inhibitors (Pierce, Rockford, IL) and Phosphatase inhibitor cocktail 2 (Sigma, St. Louis, MO) at 4° C. for 10 min with shaking.
(§1) Cellular levels of phospho-Serine 318 ATG13 (pATG13) were measured via an ELISA method. Total ATG13 Antibody (Cell Signaling Cat #13273) was used to coat the wells. The plate was incubated at 4° C. overnight and washed with ELISA wash buffer (Biolegend Cat #421601). The wells were then blocked with assay diluent (Biolegend Cat #421203) for 1 h at rt. Plate wells were washed with ELISA wash buffer. Cell lysate was added to wells and incubated at rt for 2 h. Plate wells were washed with ELISA wash buffer. Biotinylated pS318-ATG13 antibody (Rockland Immunochemicals Cat #600-401-C49) was diluted in assay diluent and added to each well and incubated at rt for 1 h. Plate wells were washed with ELISA wash buffer. Streptavidin linked to horseradish peroxidase (Thermo Fisher Cat #21140) was diluted in assay diluent and added to each well and incubated at rt for 1 h. Plate wells were washed with ELISA wash buffer. High sensitivity TMB substrate (Biolegend Cat #421101) was added to each well and incubated at rt for 20 min. The reaction was stopped with 2.0N sulfuric acid. The plate was analyzed at on a plate reader measuring absorbance at 450 nm and 540 nm (background). Signal was calculated by first subtracting the background absorbance at 540 nm from the absorbance at 450 nm for each well. Next, the background corrected absorbance at 450 nm from blank wells was subtracted from test wells. Data was compared to control wells to determine % ATG13 phosphorylation. GraphPad Prism was used to calculate IC50 values.
For orientation: ELISA stands for enzyme-linked immunosorbent assay.

In test [2] the test system is ULK kinase substrate ATG13 (pS318-ATG13) in HCT-116 cells. The test is described as follows: pATG13 levels of mutant KRas HCT-116 cells after treatment with ULK inhibitors in combination with trametinib (ELISA). The class given is cell-based, human. How it is done:
pATG13 Levels of Mutant KRas HCT-116 Cells after Treatment with ULK Inhibitors in Combination with Trametinib
HCT-116 human colon cancer cells (10000 cells/well) were added to a 384-well tissue-culture treated plate in 50 μL of pre-warmed DMEM medium supplemented with 10% characterized fetal bovine serum (Invitrogen, Carlsbad, CA), 100 units/mL penicillin G, and 100 μg/mL streptomycin and allowed to grow overnight at 37° C., 5% CO2, and 95% humidity. The following day, 10 μL of media containing trametinib or DMSO as a control was added to wells. The final concentration of trametinib in wells was 250 nM. A dose response of a test compound (0.6 μL per well) was added. DMSO (0.6 μL) was added to control wells. The plate was briefly shaken to mix wells and then incubated at 37° C. overnight. The next day, the media was aspirated and cells were washed with Dulbecco's Phosphate Buffered Saline (Gibco). Cells were lysed using MPER lysis buffer (Pierce, Rockford, IL) containing Halt Phosphatase and Protease Inhibitors (Pierce, Rockford, IL) and Phosphatase inhibitor cocktail 2 (Sigma, St. Louis, MO) at 4° C. for 10 minutes with shaking.
as §1, with “minutes.” for “min.”

For orientation: pIC50 means the negative decadic logarithm of the IC50, by convention in mol/L. As for `CC/C(Nc1cnn(C2CCN(C(C)C)CC2)c1)=C1/C(=O)Nc2ccc(C(=O)NC[C@H]3CCCO3)cc21` [Example 1, (R,Z)-3-(1-((1-(1-isopropylpiperidin-4-yl)-1H-pyrazol-4-yl)amino)propylidene)-2-oxo-N-((tetrahydrofuran-2-yl)methyl)indoline-5-carboxamide], the negative logarithm of the IC50 (pIC50) in test [1] and in test [2] was at least 7.00 in each case.

On to `CC/C(Nc1ccc(N2CCN(C)CC2)cn1)=C1/C(=O)Nc2ccc(C(=O)NCC(F)(F)F)cc21` [Example 75], for which the pIC50 in test [2] was at least 7.00.

In the case of `CC/C(Nc1cnn(C)c1)=C1/C(=O)Nc2ccc(C(=O)NCC(F)(F)F)cc21` [Example 77], the pIC50 in test [2] is at least 7.00.

Take `CC/C(Nc1cnn(C2CCN(C(C)C)CC2)c1)=C1/C(=O)Nc2ccc(C(=O)NCCOC(F)(F)F)cc21` [Example 82]: in test [2], the pIC50 is below 6.22.

In the case of `CC/C(Nc1cnn(C2CN(C)C2)c1)=C1/C(=O)Nc2ccc(C(=O)NCC(F)(F)F)cc21` [Example 86], in test [2], the pIC50 is at least 7.00.

The values above are taken from patent publication US20240150368A1, “ULK INHIBITORS AND METHODS OF USE THEREOF” (Deciphera Pharmaceuticals, LLC, priority 2022, published 2024).
